Values after ≈ are worked out from the molar mass of the structure shown.
Tests used:
[1] = molecular target: T1, CPP32 (Homo sapiens, UniProt P42574); assay: CPP32 enzyme assay; assay type: biochemical
T1 construct: purchased BASF, Worcester, Mass
T1 sequence (P42574 29-175 limits assumed): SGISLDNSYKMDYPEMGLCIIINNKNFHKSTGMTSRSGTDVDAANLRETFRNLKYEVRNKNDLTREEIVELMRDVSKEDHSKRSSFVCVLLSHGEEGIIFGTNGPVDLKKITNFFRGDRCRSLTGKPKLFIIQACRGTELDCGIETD
T1 sequence (P42574 176-277 limits assumed): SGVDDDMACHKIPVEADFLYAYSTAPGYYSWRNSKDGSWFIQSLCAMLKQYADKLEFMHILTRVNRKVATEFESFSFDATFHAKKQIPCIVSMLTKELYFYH
Experimental: (§1) Each of the following assays were performed using either a Tecan 8051 or a Tecan Megaflex automated liquid handling system. Extracts of marine organisms were tested at 5 μg/ml for all assays except DPP IV and LAR which were tested at 50 μg/ml. The inhibition of enzyme activity found in the presence of extract was compared to that of an uninhibited control. Extracts which inhibited the enzyme>50% were retested in triplicate to confirm activity.
Test samples were aliquoted into 96 well microtiter plates and allowed to air dry. The stock CPP32 enzyme (BASF, Worcester, Mass.) was diluted by adding 10 μl of the enzyme to 17 ml of reaction buffer (50 mM Hepes pH 7.5; 10% glyccrol; 5 mM Dithiothreitol; 0.5 mM EDTA). A volume of 180 μl of the diluted enzyme was added to wells containing the dried test samples, or to empty wells (control). The contents of the microtiter wells were mixed by shaking on a plate shaker. Plates were incubated at 30° C. for 5 minutes. […] Controls for each plate consisted of an inhibitor control (50 nM DEVD-CHO final concentration); positive control (enzyme and substrate) and negative control (reaction buffer substrate). The plates were covered with aluminum foil and mixed using a plate shaker for 5 min. then incubated at 30° C. for 30 minutes. Plates were read using a plate reader with absorbance measured at 405 nm. Data was expressed as percent inhibition by comparing the absorbance values of test samples with those of the positive control (no sample).

[2] = system: P388 murine leukemia; assay: P388 in vitro anti-tumor testing (MTT); assay type: cell-based; conditions: Mus musculus, 48-hr exposure
Experimental: (§2) P388 cells can be obtained from the National Cancer Institute, Bethesda, Md., and A549 cells can be obtained from American Type Culture Collection, Rockville, Md. All cell lines are maintained in Roswell Park Memorial Institute (RPMI) medium 1640 supplemented with 10% bovine calf serum. All cell lines are cultured in plastic tissue culture flasks and kept in an incubator at 37° C. in humidified air containing 5% CO2. Prior to testing, antibiotic-free stock cultures of each of the cell lines are subcultured to 10^6 cells/ml by dilution in fresh growth medium at 2 to 3 day intervals.
To assess the antiproliferative effects of agents against the P388 cell line, 200 μl cultures (96 well tissue culture plates, Nunc, Denmark) are established at 1×10^5 cells/ml in drug-free medium or medium containing the test agent at 10.0, 1.0, 0.10 and 0.010 μg/ml. The solvent for all dilutions is ethanol. All experimental cultures are initiated in medium containing Gentamycin sulfate (50 μg/ml; Schering Corporation, Kenilworth, N.J.). After 48-hr exposure, P388 cells are enumerated using 3-[4,5-Dimethylthiazol-2-yl]-2,5-diphenyltetrazolium bromide (MTT) as described below.
(§3) To quantitate the effects on cell proliferation and resulting IC50 values, 75 μl of warm growth media containing 5 mg/ml MTT is added to each well, cultures are returned to the incubator, and left undisturbed for 90 minutes. […]

[3] = system: A549 human lung adenocarcinoma; assay: A549 in vitro anti-tumor testing (MTT); assay type: cell-based
Experimental: as §2
Similar procedures are utilized for A549 cells which require an additional 48 hr exposure prior to MTT addition. Results are expressed as percent inhibition compared to the negative (no drug) control. Positive drug controls are included to monitor drug sensitivity of each of the cell lines. These include varying dilutions of 5-fluorouracil, adriamycin, methotrexate and vinblastine.
as §3

[4] = molecular target: T2, Calcineurin (Bos taurus, UniProt P48452); assay: Calcineurin phosphatase assay (pNPP); assay type: biochemical, bovine; conditions: for inhibition at 0.5 µg/mL / inhibition at 5 µg/mL: 1 h, read-out: CaN, I; for inhibition at 0.5 µg/mL: at 0.5 μg/ml; for inhibition at 5 µg/mL: at 5 μg/ml; for IC50: pure compound, read-out: CaN, IC50 (converted)
T2 construct: Calcineurin was prepared from bovine brain; from tissue; host or cells: bovine brain
Experimental: Calcineurin activity was assayed in 96-well microtiter plates in a final volume of 50 μl. Each well contained 50 mM Tris-HCI pH 7.5, 0.5 mM MnCl2, 0.05 mM CaCl2, 1 mM DTT, 50 mM p-nitrophenylphosphate (pNPP), 0.3 μg calcineurin, a five-fold excess of calmodulin, and either test samples or control compounds. Plates were incubated at 30° C. for 60 min. Liberated p-nitrophenol was determined by the change in absorbance at 405 nm.

[5] = molecular target: T3, Aminopeptidase N (CD13) (Homo sapiens, UniProt P15144); assay: Aminopeptidase N (CD13) ELISA capture enzyme assay; assay type: biochemical; conditions: 18 h; at 5 μg/ml; read-out: ApN, I
T3 construct: The source of Aminopeptidase N was the KG-1 cell line; endogenous in cells; host or cells: KG-1 cell lysate
T3 sequence (P15144 whole entry): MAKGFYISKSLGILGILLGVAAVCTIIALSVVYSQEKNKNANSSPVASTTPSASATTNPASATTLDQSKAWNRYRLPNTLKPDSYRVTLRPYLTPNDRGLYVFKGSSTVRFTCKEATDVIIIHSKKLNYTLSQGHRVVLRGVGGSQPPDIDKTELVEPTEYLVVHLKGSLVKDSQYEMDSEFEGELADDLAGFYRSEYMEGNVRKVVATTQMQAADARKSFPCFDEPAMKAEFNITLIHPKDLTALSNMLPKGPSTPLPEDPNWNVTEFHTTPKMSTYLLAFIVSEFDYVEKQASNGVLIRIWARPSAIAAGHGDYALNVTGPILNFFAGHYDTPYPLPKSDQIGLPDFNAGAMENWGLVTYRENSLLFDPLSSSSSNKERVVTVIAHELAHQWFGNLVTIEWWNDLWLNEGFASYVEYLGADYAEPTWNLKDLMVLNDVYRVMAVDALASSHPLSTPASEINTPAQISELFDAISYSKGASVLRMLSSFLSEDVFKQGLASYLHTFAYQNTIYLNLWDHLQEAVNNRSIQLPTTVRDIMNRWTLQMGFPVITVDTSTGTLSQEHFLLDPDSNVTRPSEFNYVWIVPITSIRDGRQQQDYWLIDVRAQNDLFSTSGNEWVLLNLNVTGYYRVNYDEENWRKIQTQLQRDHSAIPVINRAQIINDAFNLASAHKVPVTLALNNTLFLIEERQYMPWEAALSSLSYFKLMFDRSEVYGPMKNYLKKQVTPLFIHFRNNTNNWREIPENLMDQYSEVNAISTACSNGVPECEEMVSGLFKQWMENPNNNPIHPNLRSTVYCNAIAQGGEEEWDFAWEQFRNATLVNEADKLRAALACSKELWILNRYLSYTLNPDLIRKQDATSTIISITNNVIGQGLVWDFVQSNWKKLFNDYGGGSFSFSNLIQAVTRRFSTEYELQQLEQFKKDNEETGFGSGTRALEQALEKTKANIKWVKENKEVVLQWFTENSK
Experimental: as §1
Aminopeptidase N was assayed using an Enzyme-Linked Immunosorbant (ELISA) capture assay. Briefly, 96-well plates were coated with goat anti-mouse immunoglobulins (Sigma #M4169). Following an overnight incubation the plates were washed three times with PBS-0.1% Triton X-100. The secondary (capture) antibody was then added to the plate (100 μl/well, 3.7 μg/ml; antihuman MY7, Coulter Corporation) and incubated for 3 hours at room temperature. Plates were washed three times with PBS-0.1% Triton X-100. The source of Aminopeptidase N was the KG-1 cell line, 100 μl of an appropriate dilution of the KG-1 cell lysate was added to each well, incubated for 3 hours and then washed a final time. The enzyme assay was performed in PBS in a final volume of 200 μl with 200 μM ala-pNA as substrate and either test samples or controls. Liberated p-nitroaniline was determined by the change in absorbance at 405 nm following an 18 hr incubation at 37° C.

[6] = system: EL-4.IL-2 murine lymphoma cells; assay: EL-4 adherence testing; assay type: cell-based
From the text: This assay is based on the properties of extracts/pure compounds which serve as protein kinase C (PKC) active agents to either induce or inhibit the adherence of EL-4.IL-2 murine lymphoma cells to plastic surfaces. The general methodology of this assay is described in detail in the following: Longley, R. E. and D. Harmody (1991) J. Antibiotics 44:93-102.

[7] = system: allogeneic immune responsiveness (MLR); assay: Two-way mixed lymphocyte reaction (MLR); assay type: cell-based
From the text: (§4) These assays measure the ability of the extracts/pure compounds to inhibit allogeneic immune responsiveness (MLR) and to affect the viability of unstimulated lymphocytes. These general methods are described in the following: Longley, R. E., D. Caddigan, D. Harmody, M. Gunasekera and S. P. Gunasekera (1991) Transplantation 52: 650-656.

[8] = system: unstimulated lymphocytes; assay: Lymphocyte viability (LCV) testing; assay type: cell-based
From the text: as §4

[9] = molecular target: T4, ICE (Homo sapiens, UniProt P29466); assay: ICE enzyme assay; assay type: biochemical
T4 construct: purchased BASF, Worcester, Mass
T4 sequence (P29466 120-297 limits assumed): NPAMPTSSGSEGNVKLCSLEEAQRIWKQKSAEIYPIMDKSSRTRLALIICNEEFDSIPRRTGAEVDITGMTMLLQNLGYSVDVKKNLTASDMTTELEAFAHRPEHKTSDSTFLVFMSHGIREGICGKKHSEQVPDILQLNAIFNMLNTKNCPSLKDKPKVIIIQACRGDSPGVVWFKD
T4 sequence (P29466 317-404 limits assumed): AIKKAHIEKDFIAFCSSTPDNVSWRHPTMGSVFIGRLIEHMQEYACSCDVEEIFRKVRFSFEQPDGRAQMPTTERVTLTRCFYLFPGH
Experimental: as §1
Test samples were aliquoted into 96 well microtiter plates and allowed to air dry. Stock ICE enzyme (supplied by BASF, Worcester, Mass.) was diluted in reaction buffer (50 mM Hepes pH 7.5, 10% glycerol, 5 mM dithiothreitol,0.5 mM EDTA and 5 mM β-mercaptoethanol) to a concentration that yielded a minimum increase of 0.1 optical density units after 30 minutes of reaction time. Diluted ICE enzyme was incubated at room temperature for 5 minutes prior to aliquoting 180 μl into each sample well. The plates were incubated at 30° C. for 5 minutes following a brief mixing of the well contents by shaking on a plate shaker. A volume of 20 μl of the enzyme substrate (Ac-YVAD-pNA) was added to each well resulting in a final concentration of 50 μM. […] Plates were read on a plate reader with absorbance measured at 405 nm. Data was expressed as percent inhibition by comparing the absorbance values of test samples with those of the positive control (no sample).

| CPP32, IC50 [1] [µg/mL] | inhibition at 0.5 µg/mL ([1]; 0.5 h, pH 7.5, at 0.5 μg/ml, read-out: CPP32, I) [%] | inhibition at 5 µg/mL ([1]; 0.5 h, pH 7.5, at 5 μg/ml, read-out: CPP32, I) [%] | IC50 [2] [µg/mL] | IC50 [3] [µg/mL] | inhibition at 0.5 µg/mL [4] [%] | inhibition at 5 µg/mL [4] [%] | IC50 [4] [µM] | inhibition at 5 µg/mL [5] [%] | IC50 [7] [µg/mL] | ICE inhibition [9] | Structure (SMILES) | EL-4 adherence [6] | IC50 [8] [µg/mL] |
| --- | --- | --- | --- | --- | --- | --- | --- | --- | --- | --- | --- | --- | --- |
| 0.02 | 76.2 | 86.5 | 0.06 | 0.04 | 46 | 75 | 2.15 | 54.9 | 0.68 (≈ 2.66 µM) | not detected | N=C1C(Cl)=C(N)C(=O)c2[nH]cc(C(O)CO)c21 (stereo not drawn) [Secobatzelline A, secobatzelline A] | inh. adhesion | 1.4 (≈ 5.48 µM) |
|  |  |  | 1.22 | 2.86 | 22 | 43 | 8.61 |  |  |  | NC1=C(Cl)C(=O)c2c(C(O)CO)c[nH]c2C1=O (stereo not drawn) [Secobatzelline B, secobatzelline B] |  |  |

— patent US6218419A, “Aminoiminoquinone and aminoquinone alkaloid compounds and methods of use” (priority 1999, dated 2001)
